The values below are quoted from earlier work in patent publication US11059901B2, “Compositions and methods related to xCT antibodies” (AGIL VAX, INC., priority 2017, dated 2021).

SMILES strings stand for the structures.

The conditions of series [1]: under physiological conditions.
Series [2] deals with T1, xCT (Homo sapiens, UniProt Q9UPY5).
T1 sequence (Q9UPY5 1-501): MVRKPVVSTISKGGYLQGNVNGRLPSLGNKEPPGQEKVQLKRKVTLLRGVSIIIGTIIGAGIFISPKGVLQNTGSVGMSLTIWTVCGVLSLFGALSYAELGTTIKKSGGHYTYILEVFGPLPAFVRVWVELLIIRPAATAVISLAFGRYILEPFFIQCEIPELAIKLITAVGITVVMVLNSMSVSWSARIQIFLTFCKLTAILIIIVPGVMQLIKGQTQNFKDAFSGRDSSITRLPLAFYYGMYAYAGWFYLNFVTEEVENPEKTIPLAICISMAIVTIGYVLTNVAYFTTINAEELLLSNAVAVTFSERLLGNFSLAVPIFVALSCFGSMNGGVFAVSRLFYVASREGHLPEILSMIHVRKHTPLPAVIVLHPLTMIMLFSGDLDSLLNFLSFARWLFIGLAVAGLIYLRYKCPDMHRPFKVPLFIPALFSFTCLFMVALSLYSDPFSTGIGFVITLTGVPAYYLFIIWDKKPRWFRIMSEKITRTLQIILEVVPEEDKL
T1 sequence (P08195 1-529 partner): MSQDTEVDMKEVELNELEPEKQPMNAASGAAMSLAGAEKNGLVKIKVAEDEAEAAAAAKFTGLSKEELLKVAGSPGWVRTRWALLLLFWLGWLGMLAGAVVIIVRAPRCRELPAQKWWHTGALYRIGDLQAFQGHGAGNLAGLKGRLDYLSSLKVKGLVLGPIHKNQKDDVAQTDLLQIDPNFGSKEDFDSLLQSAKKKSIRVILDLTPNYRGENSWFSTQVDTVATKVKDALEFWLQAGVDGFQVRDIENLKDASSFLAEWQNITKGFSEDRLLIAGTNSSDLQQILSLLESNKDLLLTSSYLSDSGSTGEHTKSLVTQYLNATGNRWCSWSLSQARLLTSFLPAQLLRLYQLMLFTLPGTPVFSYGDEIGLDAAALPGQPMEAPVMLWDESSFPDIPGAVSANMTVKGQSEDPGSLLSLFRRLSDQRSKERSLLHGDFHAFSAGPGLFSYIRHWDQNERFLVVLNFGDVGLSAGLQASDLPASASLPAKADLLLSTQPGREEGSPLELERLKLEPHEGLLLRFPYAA

For `O=C(O)c1cc(/N=N/c2ccc(S(=O)(=O)Nc3ccccn3)cc2)ccc1O` [SASP, sulfasalazine], in series [1], the solubility entry is listed as “insoluble” and the stability entry is reported as “labile”. For the same molecule, the metastatic foci result in series [2] (animal models of breast cancer metastasis) is “significant decreases”. The “frequency of CSC” value in series [2] (in vivo) is listed as “reductions”.
